Measured values taken from patent US7078556B2, “Antibiotics Cyan-416 A, Cyan-416 B, Cyan-416 C, Cyan-416 D and Cyan-416 E, and ester derivatives of Cyan-416 B” (Wyeth Holdings Corporation, priority 2002, dated 2006).
Values after ≈ are worked out from the molar mass of the structure shown. Like-named read-outs stand apart in the source and are kept apart here.

Experiments:
Assay in all cases: MIC by broth dilution
Format in all cases: cell-based
[1] = test system: Pseudomonas aeruginosa GC 2214; details: GC2214, Table 1, 18 hours at 35° C.
[2] = test system: Enterococcus faecium GC 4556; details: GC4556, Table 2, 18 hours at 35° C.
Description: (§1) The minimum inhibitory concentration (MIC), the lowest concentration of the antibiotic which inhibits growth of the test organism, is determined by the broth dilution method using Muller-Hinton II […] (Baltimore Biological Laboratories) following the recommendations of the National Committee for Clinical Laboratory Standards [Methods for dilution antimicrobial susceptibility tests for bacteria that grow aerobically. Approved standard M7-A2. National Committee for Clinical Laboratory Standards, Villanova, Pa].
(§2) An inoculum level of 5×10^5 CFU/ml, and a range of antibiotic concentrations (64–0.06 μg/ml) is used. The MIC is determined after the microtiter plates are incubated for 18 hours at 35° C. in an ambient air incubator. The test organisms comprise a spectrum of the Gram-positive bacteria Staphylococcus aureus, Streptococcus pneumoniae, and Enterococcus sp., the Gram-negative bacteria Escherichia coli, and the yeast Candida albicans. These organisms include recent clinical isolates that are resistant to methicillin and vancomycin. MIC data of Cyan-416 A–E are listed in Table 1 and MIC data of ester derivatives of Cyan-416 B (Formula I) are listed in Table 2.

[3] = test system: Staphylococcus aureus GC 4536; details: GC4536, Table 1, 18 hours at 35° C.
Description: as §1, §2

[4] = test system: Enterococcus faecalis GC 6189; details: GC6189, Table 2, 18 hours at 35° C.
Description: as §1, §2

[5] = test system: Streptococcus pneumoniae GC 1894; details: GC1894, Table 2, 18 hours at 35° C.
Description: as §1, §2

[6] = test system: Enterococcus faecalis GC 2242
Description: as §1, §2

[7] = test system: Streptococcus pneumoniae GC 6242; details: GC6242, Table 2, 18 hours at 35° C.
Description: as §1, §2

Escherichia coli GC 2203 = details: GC2203, 18 h
Description: as §1, §2

[8] = test system: Enterococcus faecium GC 2243; details: GC2243, Table 2, 18 hours at 35° C.
Description: as §1, §2

[9] = test system: Enterococcus faecalis GC 4555
Description: as §1, §2

[10] = test system: Enterococcus faecalis GC 842; details: GC842, Table 1, 18 hours at 35° C.
Description: as §1, §2

[11] = test system: Enterococcus faecium 4558; details: Table 2, 18 hours at 35° C.
Description: as §1, §2

[12] = test system: Staphylococcus aureus GC 4541; details: GC4541, Table 2, 18 hours at 35° C.
Description: as §1, §2

[13] = test system: Staphylococcus aureus GC 4543; details: GC4543, Table 2, 18 hours at 35° C.
Description: as §1, §2

[14] = test system: Staphylococcus aureus GC 2216
Description: as §1, §2

[15] = test system: Escherichia coli GC 4560 (imp)
Description: as §1, §2

Candida albicans GC 3066 = details: GC3066, 18 h
Description: as §1, §2

[16] = test system: Staphylococcus aureus GC 1131
Description: as §1, §2

[17] = test system: Staphylococcus haemolyticus GC 4547; details: GC4547, Table 2, 18 hours at 35° C.
Description: as §1, §2

[18] = GC2242, Table 1, 18 hours at 35° C., read-out: MIC
[19] = Table 1, Escherichia coli GC 2203, 18 hours at 35° C.
[20] = GC4555, Table 1, 18 hours at 35° C., read-out: MIC
[21] = GC2216, Table 1, 18 hours at 35° C., read-out: MIC
[22] = GC1131, Table 1, 18 hours at 35° C., read-out: MIC

| SMILES | MIC [1] [µg/mL] | MIC [3] [µg/mL] | MIC [6, 18] [µg/mL] | MIC (Escherichia coli GC 2203; [19]) [µg/mL] | MIC [9, 20] [µg/mL] | MIC [10] [µg/mL] | MIC [14, 21] [µg/mL] | MIC ([15]; Escherichia coli, 18 h) [µg/mL] | MIC (Candida albicans GC 3066; Table 1, 18 hours at 35° C.) [µg/mL] | MIC [16, 22] [µg/mL] | also measured |
| --- | --- | --- | --- | --- | --- | --- | --- | --- | --- | --- | --- |
| COC(=O)c1c(O)ccc(O)c1C(=O)c1c(O)cc2c(c1O)[C@@H]1C=C[C@]3(C2)C(=C(O)c2c(O)cc(C)cc2[C@@H]3OC(C)=O)C1=O [Example 3a, Cyan-416 A] | > 64 | 8 (≈ 13 µM) | 16 (≈ 26 µM) | > 64 | 16 (≈ 26 µM) | 16 (≈ 26 µM) | 8 (≈ 13 µM) | 32 (≈ 52.1 µM) | > 64 | 8 (≈ 13 µM) | MIC [2]: 16 µg/mL (≈ 26 µM); MIC [4]: 16 µg/mL (≈ 26 µM); MIC [5]: 8 µg/mL (≈ 13 µM); MIC ([6]; Table 2, 18 hours at 35° C.): 16 µg/mL (≈ 26 µM); MIC [7]: 8 µg/mL (≈ 13 µM); MIC (Escherichia coli GC 2203; Table 2, Escherichia coli coli GC 2203, 18 hours at 35° C.): > 128 µg/mL; MIC [8]: 8 µg/mL (≈ 13 µM); MIC ([9]; Table 2, 18 hours at 35° C.): 16 µg/mL (≈ 26 µM); MIC [11]: 8 µg/mL (≈ 13 µM); MIC [12]: 16 µg/mL (≈ 26 µM); MIC [13]: 8 µg/mL (≈ 13 µM); MIC ([14]; Table 2, 18 hours at 35° C.): 8 µg/mL (≈ 13 µM); MIC ([15]; Table 2, Escherichia coli GC 4560 (imp), 18 hours at 35° C.): 32 µg/mL (≈ 52.1 µM); MIC (Candida albicans GC 3066; Table 2, 18 hours at 35° C.): > 128 µg/mL; MIC ([16]; Table 2, 18 hours at 35° C.): 8 µg/mL (≈ 13 µM); MIC [17]: 16 µg/mL (≈ 26 µM) |
| COC(=O)c1c(O)ccc(O)c1C(=O)c1c(O)cc2c(c1O)[C@@H]1C=C[C@]3(C2)C(=C(O)c2c(O)cc(C)cc2[C@@H]3O)C1=O [Example 3b, Cyan-416 B] | > 64 | 32 (≈ 55.9 µM) | 32 (≈ 55.9 µM) | > 64 | 64 (≈ 112 µM) | 64 (≈ 112 µM) | 32 (≈ 55.9 µM) | 64 (≈ 112 µM) | > 64 | 32 (≈ 55.9 µM) |  |
| COC(=O)c1c(O)ccc(O)c1C(=O)c1c(O)cc2c(c1O)[C@@H]1C=C[C@@]3(C2)[C@@H](OC(C)=O)c2cc(C)cc(O)c2C(=O)C3(O)C1=O (some centres unmarked) [Example 3c, Cyan-416 C] | > 64 | 32 (≈ 50.7 µM) | 32 (≈ 50.7 µM) | > 64 | 64 (≈ 101 µM) | 32 (≈ 50.7 µM) | 32 (≈ 50.7 µM) | > 64 | > 64 | 32 (≈ 50.7 µM) |  |
| COC(=O)c1c(O)ccc(O)c1C(=O)c1c(O)cc(C)cc1O [Example 4a, Cyan-416 D] | > 64 | 64 (≈ 201 µM) | 32 (≈ 101 µM) | > 64 | 64 (≈ 201 µM) | 64 (≈ 201 µM) | 64 (≈ 201 µM) | 64 (≈ 201 µM) | > 64 | 64 (≈ 201 µM) |  |
